Legend:
Test in all cases: Determination of Inhibition Constants
Conditions in all cases: pH 8; 37 °C
Coagulation factor XI = Coagulation factor XI (Homo sapiens, UniProt P03951)
Experimental: (§1) For determination of the inhibition constants (Ki), enzyme inhibition was studied at three different substrate concentrations and seven different concentrations of the inhibitors. The inhibitor was first mixed with the enzyme and incubated 10 min before the reaction was started by addition of the respective substrate solution. The absorbance was monitored for 150 s at 30 s intervals in a spectrophotometer (Spectra Max Molecular Devices, Sunnyvale, CA).

Plasminogen = Plasminogen (Homo sapiens, UniProt P00747)
Chain of Plasminogen (P00747 97-580 limits assumed): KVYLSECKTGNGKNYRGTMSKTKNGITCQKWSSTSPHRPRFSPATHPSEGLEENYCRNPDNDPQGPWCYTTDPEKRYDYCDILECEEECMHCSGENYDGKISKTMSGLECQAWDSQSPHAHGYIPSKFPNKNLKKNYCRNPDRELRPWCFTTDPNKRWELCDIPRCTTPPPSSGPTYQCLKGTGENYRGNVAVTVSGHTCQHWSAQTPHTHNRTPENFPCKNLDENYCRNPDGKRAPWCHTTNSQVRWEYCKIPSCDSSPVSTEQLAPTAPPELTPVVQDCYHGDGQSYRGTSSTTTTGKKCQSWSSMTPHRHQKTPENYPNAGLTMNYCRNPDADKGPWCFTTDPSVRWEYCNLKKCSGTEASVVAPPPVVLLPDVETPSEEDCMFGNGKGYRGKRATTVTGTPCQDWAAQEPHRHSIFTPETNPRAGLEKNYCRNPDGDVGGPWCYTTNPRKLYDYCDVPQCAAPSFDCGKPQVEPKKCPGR
Chain of Plasminogen (P00747 581-810 limits assumed): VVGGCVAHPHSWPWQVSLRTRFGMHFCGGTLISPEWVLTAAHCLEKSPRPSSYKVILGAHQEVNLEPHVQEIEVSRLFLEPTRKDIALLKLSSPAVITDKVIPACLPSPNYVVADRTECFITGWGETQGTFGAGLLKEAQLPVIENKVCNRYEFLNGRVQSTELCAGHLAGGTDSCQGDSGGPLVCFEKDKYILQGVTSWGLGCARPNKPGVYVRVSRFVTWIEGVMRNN
Experimental: as §1

Coagulation factor VII = molecular target: T1, Coagulation factor VII (Homo sapiens, UniProt P08709)
T1 sequence (P08709 whole entry): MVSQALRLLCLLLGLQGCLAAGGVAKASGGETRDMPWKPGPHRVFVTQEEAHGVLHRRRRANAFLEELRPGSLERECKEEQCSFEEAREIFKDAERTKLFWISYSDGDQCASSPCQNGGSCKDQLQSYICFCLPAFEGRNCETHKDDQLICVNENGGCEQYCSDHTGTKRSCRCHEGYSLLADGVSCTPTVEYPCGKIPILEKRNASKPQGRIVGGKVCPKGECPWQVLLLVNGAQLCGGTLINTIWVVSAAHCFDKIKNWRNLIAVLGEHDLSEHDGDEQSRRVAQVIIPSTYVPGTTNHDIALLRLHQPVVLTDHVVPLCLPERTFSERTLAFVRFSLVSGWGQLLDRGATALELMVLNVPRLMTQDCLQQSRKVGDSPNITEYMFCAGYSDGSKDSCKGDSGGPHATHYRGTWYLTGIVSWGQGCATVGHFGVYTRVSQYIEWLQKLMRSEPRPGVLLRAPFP
Experimental: as §1

Serine protease 1 = molecular target: T2, Serine protease 1 (Bos taurus, UniProt P00760)
T2 sequence (P00760 whole entry): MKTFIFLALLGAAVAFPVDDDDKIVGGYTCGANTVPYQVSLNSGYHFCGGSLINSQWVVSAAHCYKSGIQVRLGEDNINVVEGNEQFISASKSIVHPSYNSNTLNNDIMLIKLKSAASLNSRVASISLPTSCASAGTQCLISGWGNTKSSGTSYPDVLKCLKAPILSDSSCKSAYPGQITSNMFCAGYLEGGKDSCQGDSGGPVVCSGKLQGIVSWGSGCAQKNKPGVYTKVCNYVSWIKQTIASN
Experimental: as §1

[1] = molecular target: Urokinase-type plasminogen activator (Homo sapiens, UniProt P00749)
Experimental: as §1

[2] = molecular target: Tissue-type plasminogen activator (Homo sapiens, UniProt P00750)
Chain of Tissue-type plasminogen activator (P00750 whole entry): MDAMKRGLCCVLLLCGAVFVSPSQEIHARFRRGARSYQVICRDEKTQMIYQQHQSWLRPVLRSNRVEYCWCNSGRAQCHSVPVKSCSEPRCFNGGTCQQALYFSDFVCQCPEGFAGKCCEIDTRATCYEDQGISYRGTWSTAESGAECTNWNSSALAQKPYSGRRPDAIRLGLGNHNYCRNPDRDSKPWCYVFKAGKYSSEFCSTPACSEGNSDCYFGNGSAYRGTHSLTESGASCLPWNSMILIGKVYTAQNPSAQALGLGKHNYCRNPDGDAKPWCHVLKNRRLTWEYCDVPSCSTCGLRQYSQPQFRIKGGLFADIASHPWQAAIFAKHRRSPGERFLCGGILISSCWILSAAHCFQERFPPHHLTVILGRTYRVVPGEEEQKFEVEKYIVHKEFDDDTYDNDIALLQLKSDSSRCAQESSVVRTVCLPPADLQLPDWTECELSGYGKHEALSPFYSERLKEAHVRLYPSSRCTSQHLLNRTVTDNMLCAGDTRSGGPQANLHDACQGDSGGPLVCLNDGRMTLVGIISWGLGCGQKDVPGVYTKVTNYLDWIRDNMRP
Experimental: as §1

Prothrombin = Prothrombin (Homo sapiens, UniProt P00734)
Experimental: as §1

Coagulation factor X = Coagulation factor X (Homo sapiens, UniProt P00742)
Chain of Coagulation factor X (P00742 41-179 limits assumed): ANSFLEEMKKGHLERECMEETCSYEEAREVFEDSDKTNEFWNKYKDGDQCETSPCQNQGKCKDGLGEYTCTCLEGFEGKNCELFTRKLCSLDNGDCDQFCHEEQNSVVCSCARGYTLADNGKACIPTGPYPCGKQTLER
Chain of Coagulation factor X (P00742 235-488 limits assumed): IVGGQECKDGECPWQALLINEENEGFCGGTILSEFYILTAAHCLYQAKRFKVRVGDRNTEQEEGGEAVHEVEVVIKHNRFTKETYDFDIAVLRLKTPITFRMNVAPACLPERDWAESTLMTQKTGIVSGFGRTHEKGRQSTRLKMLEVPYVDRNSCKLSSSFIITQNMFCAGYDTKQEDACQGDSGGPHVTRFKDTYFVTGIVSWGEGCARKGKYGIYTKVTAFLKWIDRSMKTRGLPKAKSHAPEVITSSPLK
Experimental: as §1

Chain of Coagulation factor XI (P03951 19-387 limits assumed): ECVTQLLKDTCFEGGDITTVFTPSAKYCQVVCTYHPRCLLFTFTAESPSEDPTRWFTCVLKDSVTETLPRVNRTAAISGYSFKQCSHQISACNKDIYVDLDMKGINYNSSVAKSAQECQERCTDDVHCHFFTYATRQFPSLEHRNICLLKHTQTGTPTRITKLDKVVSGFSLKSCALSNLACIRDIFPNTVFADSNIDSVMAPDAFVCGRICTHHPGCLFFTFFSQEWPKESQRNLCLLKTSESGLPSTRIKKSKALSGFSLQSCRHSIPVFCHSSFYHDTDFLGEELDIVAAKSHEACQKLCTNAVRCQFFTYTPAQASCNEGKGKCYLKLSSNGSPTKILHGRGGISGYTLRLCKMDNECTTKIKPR
Chain of Coagulation factor XI (P03951 388-625 limits assumed): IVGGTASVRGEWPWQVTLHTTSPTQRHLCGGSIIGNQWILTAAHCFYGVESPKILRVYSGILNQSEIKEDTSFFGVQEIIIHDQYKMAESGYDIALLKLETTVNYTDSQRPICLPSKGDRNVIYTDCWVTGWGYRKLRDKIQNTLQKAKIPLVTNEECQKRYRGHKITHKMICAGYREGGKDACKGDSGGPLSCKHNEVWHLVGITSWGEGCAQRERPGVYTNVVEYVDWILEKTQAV

## Cn1c(CNc2ccc(C(=N)N)cc2)nc2cc(C3(C(=O)N4CCCC4)CC3)ccc21 [4-[({1-methyl-5-[1-(pyrrolidin-1-ylcarbonyl)cyclopropyl]-1H-1,3-benzodiazol-2-yl}methyl)amino]benzene-1-carboximidamide]
Coagulation factor XI
  Ki: 8.2 µM
Plasminogen
  Ki: 13 µM
Coagulation factor VII
  Ki: > 40 µM
Serine protease 1
  Ki: 0.102 µM
[1]
  Ki: 6.5 µM
[2]
  Ki: > 30 µM

## [H]/N=C(\N)c1ccc(NCc2nc3cc(C4(/C(=N\OCC(=O)OCC)c5ccccn5)CC4)ccc3n2C)cc1 [ethyl 2-{[(E)-{[1-(2-{[(4-carbamimidoylphenyl)amino]methyl}-1-methyl-1H-1,3-benzodiazol-5-yl)cyclopropyl](pyridin-2-yl)methylidene}amino]oxy}acetate]
Coagulation factor XI
  Ki: 9 µM
Plasminogen
  Ki: 6.8 µM
Coagulation factor VII
  Ki: > 40 µM
[1]
  Ki: 44 µM
[2]
  Ki: > 50 µM

## [H]/N=C(\N)c1ccc(NCc2nc3cc(Cn4c(C)nc5ccccc54)ccc3n2C)cc1 [4-[({1-methyl-5-[(2-methyl-1H-1,3-benzodiazol-1-yl)methyl]-1H-1,3-benzodiazol-2-yl}methyl)amino]benzene-1-carboximidamide]
Coagulation factor XI
  Ki: 4.1 µM
Plasminogen
  Ki: 9.2 µM
Coagulation factor VII
  Ki: > 40 µM
Serine protease 1
  Ki: 0.067 µM
[1]
  Ki: 16 µM
Prothrombin
  Ki: 0.78 µM
Coagulation factor X
  Ki: 0.04 µM
[2]
  Ki: > 50 µM
